Paper PMC8200345 (American Journal of Clinical Dermatology, 2021)
Where two headings read alike, the source gives them in different places.

Assays:
[1] = human, in vivo
[2] = any of the three studies in atopic dermatitis
Phase II study = assay type: in vivo, human (adult patients with atopic dermatitis); details: Phase II SLR (QD only); log-transformed Ctrough week 4 vs API dose
[3] = phase III studies combined
[4] = cited from earlier work
[5] = cited from earlier work; remark: listed apart in the source

SMILES: N#CC[C@H](C1CCCC1)n1cc(-c2ncnc3[nH]ccc23)cn1 [ruxolitinib]
- Dose-PK model: exponent on API dose (regression slope), estimate [1]: 0.801
- Dose-PK model: exponent on API dose, estimate [1]: 0.462
- Dose-PK model: exponent on baseline IGA 3, estimate [1]: 0.322
- Dose-PK model: exponent on region = Europe, estimate [1]: 0.782
- Mean Css as percent of the whole blood IC50 value [1]: < 15%
- Changes in hematological parameters [2]: no clinically relevant changes
- Dose-PK model: exponent on API dose (regression slope), estimate (Phase II study): 0.805
- Correlation between ruxolitinib Css quartiles and absolute neutrophil count [3]: no correlation
- Bioavailability after oral dosing [4]: near-complete
- Average Css ([5]; 25 mg BID oral): ~ 350 nM
- Maximum tolerated dose ([5]; oral, patients with myelofibrosis): 25 mg BID
